Source: patent US20080039515A1, “Arylpyrazoles And Methods Of Using Same For Control Of Insect Pests That Bore Into Trees” (The Texas A&M University System, priority 2004, published 2008)
Like-named read-outs stand apart in the source and are kept apart here.

System: Ips engravers beetles
Type: in vivo
Procedure: Study Sites: Two 20-year-old, recently thinned loblolly pine plantations were selected in Texas. Trees in one plantation were injected for use in a bolt study (Trial 1). Trees in ½ acre section of the second plantation were injected as part of a single-tree protection study (Trial 2). A staging area also was set up in the second plantation where bolts from the first plantation were exposed to bark beetles and wood borers.
Population Monitoring: A clear panel of acetate (10 cm wide by 25 cm long) was attached to the center of each bolt after deployment of bolts or 2 m high on standing trees after deployment of pheromone baits to monitor arrival of bark beetles. The top surface of each panel was coated entirely with Stikem Special® trapping compound (Michel and Pelton, Emeryville, Calif.). The traps were left in place for two weeks.
After 1 (May 24), 3 (July 19) and 5 (September) months post-injection, 5 trees of each treatment were felled and two 1.5 m long bolts were removed from the 3 m and 8 m heights of the bole. Because southern pine beetle (SPB) populations were extremely low in east Texas during the study year, Ips engravers were used as alternative bark beetles for this study. The bolts were transported to a 20-year-old loblolly plantation that was recently thinned and contained fresh slash material. Each bolt was placed about 1 m apart on discarded, dry pine bolts to maximize surface area available for colonization as well as to discourage predation by ground and litter-inhabiting organisms. To facilitate timely bark beetle colonization, packets of bark beetle pheromones (racemic ipsdienol +lanerione combination, ipsenol or cis-verbenol; Phero Tech, Inc., Delta, BC, Canada) were attached separately to three 1 m stakes evenly spaced in the study area. Racemic ipsdienol and cis-verbenol were used with the second series of bolts deployed in July. The packets were removed after 2 weeks when signs of attacks (boring dust) were observed on most test bolts, signaling that naturally-produced pheromones were present.
Treatment Evaluation: Trial 1. The first and second series of bolts were retrieved 2.5 and 3 weeks, respectively, after deployment, after observing many cerambycid attacks on most of the bolts. In the laboratory, two 10×50 cm strips (total=1000 cm^2) of bark were removed from each bolt. Several measurements were made relating to construction of nuptial chambers and egg galleries and development of brood: • 1. Number of unsuccessful attacks—penetration to phloem, but no egg galleries. • 2. Number of successful attacks—construction of nuptial chamber and at least one egg gallery extending from it. • 3. Number and lengths of egg galleries with brood galleries radiating from them. • 4. Number and lengths of egg galleries without brood galleries. • 5. Cerambycid activity, estimated by overlaying a 100 cm^2 grid over a portion of each bark strip and counting the number of squares overlapping area where cerambycids had fed.
Treatment efficacy was determined by comparing Ips beetle attacks and egg gallery length and cerambycid feeding on treated and untreated bolts. The data were transformed by log10(x+1) to satisfy criteria for normality and homoscedasticity (Zar 1984) and analyzed by GLM and the Fishers Protected LSD test using the Statview statistical program.

[1] = 1 month post-injection (May), bolt height 3 m
[2] = 1 month post-injection (May), bolt height 8 m
[3] = 3 months post-injection (July), bolt height 3 m
[4] = 3 months post-injection (July), bolt height 8 m
[5] = 3 months post-injection, bolt height 3 m
[6] = 3 months post-injection, bolt height 8 m
[7] = 5 months post-injection (Sept.), bolt height 3 m
[8] = 5 months post-injection (Sept.), bolt height 8 m

SMILES: O=[N+]([O-])NC1=NCCN1Cc1ccc(Cl)nc1 [Imid]
- Length of Egg Galleries Total [1]: 442.2
- Length of Egg Galleries With Brood [1]: 283.2 cm
- Length of Egg Galleries With Brood % of Total [1]: 64.0%
- Length of Egg Galleries Without Brood [1]: 159.0 cm
- Length of Egg Galleries Without Brood % of Total [1]: 36.0%
- Mean # of Ips caught/trap [1]: 5.6
- Number of Egg Galleries Total [1]: 65.2
- Number of Egg Galleries With Brood % of Total [1]: 46.0%
- Number of Egg Galleries With Brood No. [1]: 30.0
- Number of Egg Galleries Without Brood % of Total [1]: 54.0%
- Number of Egg Galleries Without Brood No. [1]: 35.2
- Nuptial Chambers Total [1]: 18.2
- Nuptial Chambers With Egg Galleries % of Total [1]: 89.0%
- Nuptial Chambers With Egg Galleries No. [1]: 16.2
- Nuptial Chambers Without Egg Galleries % of Total [1]: 11.0%
- Nuptial Chambers Without Egg Galleries No. [1]: 2.0
- Length of Egg Galleries Total [2]: 315.8
- Length of Egg Galleries With Brood [2]: 197.0 cm
- Length of Egg Galleries With Brood % of Total [2]: 62.4%
- Length of Egg Galleries Without Brood [2]: 118.8 cm
- Length of Egg Galleries Without Brood % of Total [2]: 37.6%
- Mean # of Ips caught/trap [2]: 3.8
- Number of Egg Galleries Total [2]: 49.0
- Number of Egg Galleries With Brood % of Total [2]: 39.6%
- Number of Egg Galleries With Brood No. [2]: 19.4
- Number of Egg Galleries Without Brood % of Total [2]: 60.4%
- Number of Egg Galleries Without Brood No. [2]: 29.6
- Nuptial Chambers Total [2]: 15.8
- Nuptial Chambers With Egg Galleries % of Total [2]: 81.0%
- Nuptial Chambers With Egg Galleries No. [2]: 12.8
- Nuptial Chambers Without Egg Galleries % of Total [2]: 19.0%
- Nuptial Chambers Without Egg Galleries No. [2]: 3.0
- Mean # of Ips caught/trap [3]: 2.6
- Nuptial Chambers Total [3]: 10.8
- Nuptial Chambers With Egg Galleries % of Total [3]: 61.1%
- Nuptial Chambers With Egg Galleries No. [3]: 6.6
- Nuptial Chambers Without Egg Galleries % of Total [3]: 38.9%
- Nuptial Chambers Without Egg Galleries No. [3]: 4.2
- Mean # of Ips caught/trap [4]: 2.0
- Nuptial Chambers Total [4]: 9.4
- Nuptial Chambers With Egg Galleries % of Total [4]: 59.6%
- Nuptial Chambers With Egg Galleries No. [4]: 5.6
- Nuptial Chambers Without Egg Galleries % of Total [4]: 40.4%
- Nuptial Chambers Without Egg Galleries No. [4]: 3.8
- Length of Egg Galleries Total [5]: 187.4
- Length of Egg Galleries With Brood [5]: 151.4 cm
- Length of Egg Galleries With Brood % of Total [5]: 80.8%
- Length of Egg Galleries Without Brood [5]: 36.0 cm
- Length of Egg Galleries Without Brood % of Total [5]: 19.2%
- Number of Egg Galleries Total [5]: 20.6
- Number of Egg Galleries With Brood % of Total [5]: 68.9%
- Number of Egg Galleries With Brood No. [5]: 14.2
- Number of Egg Galleries Without Brood % of Total [5]: 31.1%
- Number of Egg Galleries Without Brood No. [5]: 6.4
- Length of Egg Galleries Total [6]: 130.0
- Length of Egg Galleries With Brood [6]: 87.4 cm
- Length of Egg Galleries With Brood % of Total [6]: 67.2%
- Length of Egg Galleries Without Brood [6]: 42.6 cm
- Length of Egg Galleries Without Brood % of Total [6]: 32.8%
- Number of Egg Galleries Total [6]: 17.4
- Number of Egg Galleries With Brood % of Total [6]: 52.9%
- Number of Egg Galleries With Brood No. [6]: 9.2
- Number of Egg Galleries Without Brood % of Total [6]: 47.1%
- Number of Egg Galleries Without Brood No. [6]: 8.2
- Length of Egg Galleries Total [7]: 163.4
- Length of Egg Galleries With Brood [7]: 154.2 cm
- Length of Egg Galleries With Brood % of Total [7]: 94.4%
- Length of Egg Galleries Without Brood [7]: 9.2 cm
- Length of Egg Galleries Without Brood % of Total [7]: 5.6%
- Mean # of Ips caught/trap [7]: 1.6
- Number of Egg Galleries Total [7]: 13.2
- Number of Egg Galleries With Brood % of Total [7]: 89.4%
- Number of Egg Galleries With Brood No. [7]: 11.8
- Number of Egg Galleries Without Brood % of Total [7]: 10.6%
- Number of Egg Galleries Without Brood No. [7]: 1.4
- Nuptial Chambers Total [7]: 4.6
- Nuptial Chambers With Egg Galleries % of Total [7]: 95.7%
- Nuptial Chambers With Egg Galleries No. [7]: 4.4
- Nuptial Chambers Without Egg Galleries % of Total [7]: 4.3%
- Nuptial Chambers Without Egg Galleries No. [7]: 0.2
- Length of Egg Galleries Total [8]: 164.4
- Length of Egg Galleries With Brood [8]: 144.8 cm
- Length of Egg Galleries With Brood % of Total [8]: 88.1%
- Length of Egg Galleries Without Brood [8]: 19.6 cm
- Length of Egg Galleries Without Brood % of Total [8]: 11.9%
- Mean # of Ips caught/trap [8]: 1.5
- Number of Egg Galleries Total [8]: 18.0
- Number of Egg Galleries With Brood % of Total [8]: 81.1%
- Number of Egg Galleries With Brood No. [8]: 14.6
- Number of Egg Galleries Without Brood % of Total [8]: 18.9%
- Number of Egg Galleries Without Brood No. [8]: 3.4
- Nuptial Chambers Total [8]: 7.2
- Nuptial Chambers With Egg Galleries % of Total [8]: 69.4%
- Nuptial Chambers With Egg Galleries No. [8]: 5.0
- Nuptial Chambers Without Egg Galleries % of Total [8]: 30.6%
- Nuptial Chambers Without Egg Galleries No. [8]: 2.2
